Assay results taken from article PMC10165273, “Itch receptor MRGPRX4 interacts with the receptor activity–modifying proteins” (The Journal of Biological Chemistry, 2023).
“And” between values parts separate entries of the source, which are not always exact repeats. Equal values may be shown once. Read-outs that look alike come from different tables or passages of the source.

Target: T1, MRGPRX4 + RAMP1 (Homo sapiens, UniProt Q96LA9)
T1 construct: expressed in transfected cells; host or cells: HEK293T
Test: IP1 accumulation, MRGPRX4 coexpressed with RAMP1
Assay type: cell-based
Set-up: key to IP1 Basal / response to agonist, X4:ramp1.I:1 / response to agonist, X4:ramp1.I:2 / response to agonist, X4:ramp1.I:0.25 / response to agonist, X4:ramp1.I:0.5: % IP1; unstimulated mock = 0%, fully stimulated MRGPRX4 = 100%; potency: unit not given here
Conditions: for IP1 accumulation (normalized): MRGPRX4+RAMP1 1pg 1:1, Supplementary Figure 5d, 5g
Description: HEK293T cells were transfected with 1 pg/cell of MRGPRX4 DNA, and the amount of DNA was kept constant at 2 pg/cell with pcDNA3.1(+) empty vector, unless otherwise specified. Twenty four hours after transfection, IP1 assay was performed as previously described ([51]). When applicable, cells were treated with 1 μM YM254890 (YM) or different concentrations of U73122 for 1 h prior to addition of agonist or buffer. After incubation for 2 h, HTRF reagents and IP1 calibration standards were added and incubated for 2 h in the dark at room temperature. Time-resolved fluorescence signals were read on the BioTek Synergy NEO-TRF Hybrid multi-mode reader (BioTek Instruments). All data were carried out in three independent experiments with three technical replicate each.
For a homogenous transfection of MRGPRX4, a master mix of MRGPRX4 DNA was made prior to addition of the RAMP DNA. […]
Data reduction, standard calibration, and transformation of HTRF data were performed as previously described ([51]). Normalized IP1 values were calculated relative to the unstimulated mock-transfected cells (set to 0%) and fully stimulated MRGPRX4 (alone if applicable) (set to 100%).

T1 sequence (Q96LA9 whole entry): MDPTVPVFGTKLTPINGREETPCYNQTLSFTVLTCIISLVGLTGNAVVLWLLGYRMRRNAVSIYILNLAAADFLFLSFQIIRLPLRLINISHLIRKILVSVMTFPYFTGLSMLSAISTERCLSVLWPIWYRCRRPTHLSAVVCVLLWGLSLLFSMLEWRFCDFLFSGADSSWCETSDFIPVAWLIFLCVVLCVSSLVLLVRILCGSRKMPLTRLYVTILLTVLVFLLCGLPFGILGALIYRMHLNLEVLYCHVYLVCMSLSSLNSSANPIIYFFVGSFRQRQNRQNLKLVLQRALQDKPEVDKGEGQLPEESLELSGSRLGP

## CC(C)[C@H]1CC[C@H](C(=O)N[C@H](Cc2ccccc2)C(=O)O)CC1 [Nateglinide]
Figure 4a bottom, DNA ratio MRGPRX4:RAMP1 1:1, MRGPRX4 alone = 100, read-out: efficacy
  Emax: 126%
Figure 4a top, DNA ratio MRGPRX4:RAMP1 1:0.25, individual replicates, read-out: potency (converted)
  EC50: 11.1 µM and 9.42 µM and 15.2 µM
Figure 4a top, DNA ratio MRGPRX4:RAMP1 1:0.5, individual replicates
  potency: 5.042
Figure 4a top, DNA ratio MRGPRX4:RAMP1 1:0.5, individual replicates, read-out: potency (converted)
  EC50: 10.5 µM
Figure 4a top, DNA ratio MRGPRX4:RAMP1 1:0.75, individual replicates, read-out: potency (converted)
  EC50: 10.7 µM and 11.9 µM and 6.64 µM
Figure 4a top, DNA ratio MRGPRX4:RAMP1 1:1, individual replicates, read-out: potency (converted)
  EC50: 9.29 µM and 9.23 µM
Figure 4c-f, agonist 100µM, X4:ramp1 1:0.25, MRGPRX4 = 100
  response to agonist, X4:ramp1.I:0.25: 94.0571 and 91.2695
Figure 4c-f, agonist 100µM, X4:ramp1 1:0.5, MRGPRX4 = 100
  response to agonist, X4:ramp1.I:0.5: 83.4975 and 100.084
Figure 4c-f, agonist 100µM, X4:ramp1 1:1, MRGPRX4 = 100
  response to agonist, X4:ramp1.I:1: 101.298 and 92.1048
Figure 4c-f, agonist 100µM, X4:ramp1 1:2, MRGPRX4 = 100
  response to agonist, X4:ramp1.I:2: 90.9768 and 105.34
MRGPRX4 + RAMP1 0.25 pg (Fig. S3), normalized per agonist
  IP1 Basal: 19.44
MRGPRX4 + RAMP1 0.25 pg (Fig. S3), normalized per agonist, read-out: IP1 EC50
  EC50: 11.5 µM
MRGPRX4 + RAMP1 0.25 pg (Fig. S3), normalized per agonist, read-out: IP1 Emax
  Emax: 112%
MRGPRX4 + RAMP1 0.25 pg (Fig. S3), normalized per agonist, read-out: IP1 span
  Emax: 92.4%
MRGPRX4 + RAMP1 0.5 pg (Fig. S3), normalized per agonist
  IP1 Basal: 18.21
MRGPRX4 + RAMP1 0.5 pg (Fig. S3), normalized per agonist, read-out: IP1 EC50
  EC50: 9.56 µM
MRGPRX4 + RAMP1 0.5 pg (Fig. S3), normalized per agonist, read-out: IP1 Emax
  Emax: 115%
MRGPRX4 + RAMP1 0.5 pg (Fig. S3), normalized per agonist, read-out: IP1 span
  Emax: 96.6%
MRGPRX4 + RAMP1 1 pg (Fig. S3), normalized per agonist
  IP1 Basal: 16.52
MRGPRX4 + RAMP1 1 pg (Fig. S3), normalized per agonist, read-out: IP1 EC50
  EC50: 9.45 µM
MRGPRX4 + RAMP1 1 pg (Fig. S3), normalized per agonist, read-out: IP1 Emax
  Emax: 114%
MRGPRX4 + RAMP1 1 pg (Fig. S3), normalized per agonist, read-out: IP1 span
  Emax: 97.4%
MRGPRX4 + RAMP1 2 pg (Fig. S3), normalized per agonist
  IP1 Basal: 11.98
MRGPRX4 + RAMP1 2 pg (Fig. S3), normalized per agonist, read-out: IP1 EC50
  EC50: 9.37 µM
MRGPRX4 + RAMP1 2 pg (Fig. S3), normalized per agonist, read-out: IP1 Emax
  Emax: 114%
MRGPRX4 + RAMP1 2 pg (Fig. S3), normalized per agonist, read-out: IP1 span
  Emax: 102%
Tet-On MRGPRX4:RAMP1 Ratio 1:0.5 (Fig. S5D)
  IP1 Basal: 7.772
Tet-On MRGPRX4:RAMP1 Ratio 1:0.5 (Fig. S5D), read-out: IP1 EC50
  EC50: 8.42 µM
Tet-On MRGPRX4:RAMP1 Ratio 1:0.5 (Fig. S5D), read-out: IP1 Emax
  Emax: 111%
Tet-On MRGPRX4:RAMP1 Ratio 1:0.5 (Fig. S5D), read-out: IP1 span
  Emax: 104%
Tet-On MRGPRX4:RAMP1 Ratio 1:0.75 (Fig. S5D)
  IP1 Basal: 6.875
Tet-On MRGPRX4:RAMP1 Ratio 1:0.75 (Fig. S5D), read-out: IP1 EC50
  EC50: 5.95 µM
Tet-On MRGPRX4:RAMP1 Ratio 1:0.75 (Fig. S5D), read-out: IP1 Emax
  Emax: 90%
Tet-On MRGPRX4:RAMP1 Ratio 1:0.75 (Fig. S5D), read-out: IP1 span
  Emax: 83.1%
Tet-On MRGPRX4:RAMP1 Ratio 1:1 (Fig. S5D)
  IP1 Basal: 7.220
Tet-On MRGPRX4:RAMP1 Ratio 1:1 (Fig. S5D), read-out: IP1 EC50
  EC50: 6.43 µM
Tet-On MRGPRX4:RAMP1 Ratio 1:1 (Fig. S5D), read-out: IP1 Emax
  Emax: 89.6%
Tet-On MRGPRX4:RAMP1 Ratio 1:1 (Fig. S5D), read-out: IP1 span
  Emax: 82.3%
Log [nateglinide] (M) -4
  IP1 accumulation (normalized): 91.5442 and 89.3648 and 84.5333 and 68.7205
Log [nateglinide] (M) -4.69897
  IP1 accumulation (normalized): 71.6977 and 68.3681 and 72.5875
Log [nateglinide] (M) -5.39794
  IP1 accumulation (normalized): 40.9098 and 36.9736 and 38.5575
Log [nateglinide] (M) -6.09691
  IP1 accumulation (normalized): 15.3098 and 13.9439 and 10.1316
Log [nateglinide] (M) -7.49485
  IP1 accumulation (normalized): 9.7787 and 6.02 and 5.114
